Laboratory results: ChEMBL document CHEMBL4715821, “Discovery of 4-ethoxy-7H-pyrrolo[2,3-d]pyrimidin-2-amines as potent, selective and orally bioavailable LRRK2 inhibitors” (Bioorg Med Chem Lett, 2018)

Experiments:
[1] = Artificial membrane permeability by PAMPA method; type: ADME; conditions: read-out: permeability
[2] = target: Serine/threonine-protein kinase MRCK beta (Homo sapiens) (UniProt Q9Y5S2); experiment: Inhibition of wild-type human partial length MRCKB (L56 to S417 residues) expressed in bacterial expression system assessed as residual activity at 1 uM by Kinomescan method relative to control
[3] = target: Mitogen-activated protein kinase kinase kinase 9 (Homo sapiens) (UniProt P80192); experiment: Inhibition of wild-type human partial length MLK1 (V88 to W426 residues) expressed in bacterial expression system assessed as residual activity at 1 uM by Kinomescan method relative to control
[4] = target: Serine/threonine-protein kinase Nek11 (Homo sapiens) (UniProt Q8NG66); experiment: Inhibition of wild-type human partial length NEK11 (M1 to E313 residues) expressed in mammalian expression system assessed as residual activity at 1 uM by Kinomescan method relative to control
Homo sapiens = species: Homo sapiens; experiment: Inhibition of PKA (unknown origin) assessed as residual activity at 1 uM by Kinomescan method relative to control
[5] = target: G protein-coupled receptor kinase 4 (Homo sapiens) (UniProt P32298); experiment: Inhibition of wild type human full length GRK4 (M1 to C578 residues) expressed in bacterial expression system assessed as residual activity at 1 uM by Kinomescan method relative to control
[6] = target: Calcium/calmodulin-dependent protein kinase type II subunit gamma (Homo sapiens) (UniProt Q13555); experiment: Inhibition of wild-type human partial length CAMK2G (R9 to A303 residues) expressed in bacterial expression system assessed as residual activity at 1 uM by Kinomescan method relative to control
[7] = target: Bone morphogenetic protein receptor type-2 (Homo sapiens) (UniProt Q13873); experiment: Inhibition of wild-type human partial length BMPR2 (R179 to Q526 residues) expressed in mammalian expression system assessed as residual activity at 1 uM by Kinomescan method relative to control
[8] = target: Calcium/calmodulin-dependent protein kinase kinase 2 (Homo sapiens) (UniProt Q96RR4); experiment: Inhibition of wild-type human partial length CAMKK2 (D65 to V471 residues) expressed in bacterial expression system assessed as residual activity at 1 uM by Kinomescan method relative to control
[9] = target: Serine/threonine-protein kinase ICK (Homo sapiens) (UniProt Q9UPZ9); experiment: Inhibition of wild-type human partial length ICK (M1 to P314 residues) expressed in mammalian expression system assessed as residual activity at 1 uM by Kinomescan method relative to control
[10] = target: Protein kinase C beta type (Homo sapiens) (UniProt P05771); experiment: Inhibition of PKCbeta1 (unknown origin) assessed as residual activity at 1 uM by Kinomescan method relative to control
[11] = target: CDK3/Cyclin E (Homo sapiens) (UniProt P24864+Q00526); experiment: Inhibition of wild-type human full length CDK3 (M1 to H305 residues)/Cyclin E expressed in bacterial expression system at 1 uM by Kinomescan method; parameters: scale not given: the % may be the effect or the level left
[12] = target: Wee1-like protein kinase (Homo sapiens) (UniProt P30291); experiment: Inhibition of wild-type human partial length WEE1 (M291 to K575 residues) expressed in bacterial expression system assessed as residual activity at 1 uM by Kinomescan method relative to control
[13] = target: RAC-alpha serine/threonine-protein kinase (Homo sapiens) (UniProt P31749); experiment: Inhibition of wild-type human partial length AKT1 expressed in bacterial expression system assessed as residual activity at 1 uM by Kinomescan method relative to control
[14] = target: Tyrosine-protein kinase Lck (Homo sapiens) (UniProt P06239); experiment: Inhibition of wild-type human partial length LCK (R207 to P509 residues) expressed in bacterial expression system assessed as residual activity at 1 uM by Kinomescan method relative to control
[15] = target: Ephrin type-A receptor 6 (Homo sapiens) (UniProt Q9UF33); experiment: Inhibition of wild-type human partial length EPHA6 (Y700 to E1046 residues) expressed in bacterial expression system assessed as residual activity at 1 uM by Kinomescan method relative to control
[16] = target: Ribosomal protein S6 kinase alpha-6 (Homo sapiens) (UniProt Q9UK32); experiment: Inhibition of wild-type human partial length N-terminal RSK4 kinase domain 1 (M1 to E397 residues) expressed in mammalian expression system assessed as residual activity at 1 uM by Kinomescan method relative to control
[17] = target: Receptor-interacting serine/threonine-protein kinase 3 (Homo sapiens) (UniProt Q9Y572); experiment: Inhibition of wild-type human partial length RIPK3 (M1 to Q307 residues) expressed in bacterial expression system assessed as residual activity at 1 uM by Kinomescan method relative to control
[18] = target: Tyrosine-protein kinase TXK (Homo sapiens) (UniProt P42681); experiment: Inhibition of wild-type human partial length TXK (L238 to W527 residues) expressed in bacterial expression system assessed as residual activity at 1 uM by Kinomescan method relative to control
[19] = target: Mitogen-activated protein kinase kinase kinase 1 (Homo sapiens) (UniProt Q13233); experiment: Inhibition of MEKK1 (unknown origin) assessed as residual activity at 1 uM by Kinomescan method relative to control
[20] = target: CDK4/Cyclin D3 (Homo sapiens) (UniProt P11802+P30281); experiment: Inhibition of wild-type human full length CDK4/cyclinD3 (M1 to E303 residues) expressed in mammalian expression system assessed as residual activity at 1 uM by Kinomescan method relative to control
[21] = target: G protein-coupled receptor kinase 6 (Homo sapiens) (UniProt P43250); experiment: Inhibition of GRK6 (unknown origin) assessed as residual activity at 1 uM by Kinomescan method relative to control
[22] = target: Cyclin-dependent kinase 5/CDK5 activator 1 (Homo sapiens) (UniProt Q00535+Q15078); experiment: Inhibition of wild-type human full length CDK5 (M1 to P292 residues)/p25 expressed in bacterial expression system assessed as residual activity at 1 uM by Kinomescan method relative to control
[23] = target: Protein kinase C zeta type (Homo sapiens) (UniProt Q05513); experiment: Inhibition of PKCzeta (unknown origin) assessed as residual activity at 1 uM by Kinomescan method relative to control
[24] = target: Serine/threonine-protein kinase PAK 5 (Homo sapiens) (UniProt Q9P286); experiment: Inhibition of PAK5 (unknown origin) assessed as residual activity at 1 uM by Kinomescan method relative to control
[25] = target: Serine/threonine-protein kinase SIK1 (Homo sapiens) (UniProt P57059); experiment: Inhibition of wild-type human partial length SIK1 (M1 to Y304 residues) expressed in bacterial expression system assessed as residual activity at 1 uM by Kinomescan method relative to control
[26] = target: Insulin-like growth factor 1 receptor (Homo sapiens) (UniProt P08069); experiment: Inhibition of wild-type human partial length IGF1R (L972 to D1294 residues) expressed in bacterial expression system assessed as residual activity at 1 uM by Kinomescan method relative to control
[27] = target: Mitogen-activated protein kinase 15 (Homo sapiens) (UniProt Q8TD08); experiment: Inhibition of ERK7 (unknown origin) assessed as residual activity at 1 uM by Kinomescan method relative to control
Chain of Mitogen-activated protein kinase 15 (Homo sapiens) (Q8TD08 whole entry): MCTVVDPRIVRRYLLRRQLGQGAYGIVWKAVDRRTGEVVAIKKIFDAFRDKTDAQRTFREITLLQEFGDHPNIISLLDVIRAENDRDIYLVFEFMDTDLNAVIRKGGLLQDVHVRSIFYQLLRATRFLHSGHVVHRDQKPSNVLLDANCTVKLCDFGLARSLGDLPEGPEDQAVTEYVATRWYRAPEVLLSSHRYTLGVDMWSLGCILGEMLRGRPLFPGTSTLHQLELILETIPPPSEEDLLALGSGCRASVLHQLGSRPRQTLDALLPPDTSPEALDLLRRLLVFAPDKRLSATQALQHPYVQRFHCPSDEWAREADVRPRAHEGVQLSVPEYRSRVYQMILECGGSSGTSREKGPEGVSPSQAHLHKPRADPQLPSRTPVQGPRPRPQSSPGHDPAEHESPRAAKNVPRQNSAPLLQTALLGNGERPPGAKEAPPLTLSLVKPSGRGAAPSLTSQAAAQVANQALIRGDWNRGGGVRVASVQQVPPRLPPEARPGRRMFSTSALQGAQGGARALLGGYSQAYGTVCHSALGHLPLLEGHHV

Chain of Calcium/calmodulin-dependent protein kinase type II subunit gamma (Homo sapiens) (Q13555 whole entry, the tested form may be a part): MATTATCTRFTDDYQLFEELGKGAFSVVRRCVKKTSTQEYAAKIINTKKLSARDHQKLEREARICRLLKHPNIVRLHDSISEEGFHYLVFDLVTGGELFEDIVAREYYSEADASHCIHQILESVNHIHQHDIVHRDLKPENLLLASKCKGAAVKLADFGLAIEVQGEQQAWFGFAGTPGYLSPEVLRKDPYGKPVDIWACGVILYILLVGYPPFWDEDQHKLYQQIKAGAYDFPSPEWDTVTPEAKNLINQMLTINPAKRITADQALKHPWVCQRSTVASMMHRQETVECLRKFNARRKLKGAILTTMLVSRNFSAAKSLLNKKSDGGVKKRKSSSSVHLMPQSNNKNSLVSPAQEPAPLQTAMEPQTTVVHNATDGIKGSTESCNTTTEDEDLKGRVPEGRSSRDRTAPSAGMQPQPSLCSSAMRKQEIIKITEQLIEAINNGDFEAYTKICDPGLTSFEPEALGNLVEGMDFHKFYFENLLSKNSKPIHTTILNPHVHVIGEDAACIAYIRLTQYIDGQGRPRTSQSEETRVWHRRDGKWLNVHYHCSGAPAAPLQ
Chain of RAC-alpha serine/threonine-protein kinase (Homo sapiens) (P31749 whole entry, the tested form may be a part): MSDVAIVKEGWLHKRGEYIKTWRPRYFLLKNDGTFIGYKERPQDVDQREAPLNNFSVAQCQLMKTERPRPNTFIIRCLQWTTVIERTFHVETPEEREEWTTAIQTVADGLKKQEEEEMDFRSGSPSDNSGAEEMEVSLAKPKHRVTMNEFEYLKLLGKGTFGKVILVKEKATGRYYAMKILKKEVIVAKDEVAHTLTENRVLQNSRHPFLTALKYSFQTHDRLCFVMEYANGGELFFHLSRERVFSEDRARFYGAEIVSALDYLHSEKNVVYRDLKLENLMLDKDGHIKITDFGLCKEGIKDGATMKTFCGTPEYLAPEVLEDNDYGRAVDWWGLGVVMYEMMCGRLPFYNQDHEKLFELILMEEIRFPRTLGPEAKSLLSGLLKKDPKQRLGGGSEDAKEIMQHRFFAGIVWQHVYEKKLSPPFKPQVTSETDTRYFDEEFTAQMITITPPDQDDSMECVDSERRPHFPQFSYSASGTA
Chain of Bone morphogenetic protein receptor type-2 (Homo sapiens) (Q13873 whole entry, the tested form may be a part): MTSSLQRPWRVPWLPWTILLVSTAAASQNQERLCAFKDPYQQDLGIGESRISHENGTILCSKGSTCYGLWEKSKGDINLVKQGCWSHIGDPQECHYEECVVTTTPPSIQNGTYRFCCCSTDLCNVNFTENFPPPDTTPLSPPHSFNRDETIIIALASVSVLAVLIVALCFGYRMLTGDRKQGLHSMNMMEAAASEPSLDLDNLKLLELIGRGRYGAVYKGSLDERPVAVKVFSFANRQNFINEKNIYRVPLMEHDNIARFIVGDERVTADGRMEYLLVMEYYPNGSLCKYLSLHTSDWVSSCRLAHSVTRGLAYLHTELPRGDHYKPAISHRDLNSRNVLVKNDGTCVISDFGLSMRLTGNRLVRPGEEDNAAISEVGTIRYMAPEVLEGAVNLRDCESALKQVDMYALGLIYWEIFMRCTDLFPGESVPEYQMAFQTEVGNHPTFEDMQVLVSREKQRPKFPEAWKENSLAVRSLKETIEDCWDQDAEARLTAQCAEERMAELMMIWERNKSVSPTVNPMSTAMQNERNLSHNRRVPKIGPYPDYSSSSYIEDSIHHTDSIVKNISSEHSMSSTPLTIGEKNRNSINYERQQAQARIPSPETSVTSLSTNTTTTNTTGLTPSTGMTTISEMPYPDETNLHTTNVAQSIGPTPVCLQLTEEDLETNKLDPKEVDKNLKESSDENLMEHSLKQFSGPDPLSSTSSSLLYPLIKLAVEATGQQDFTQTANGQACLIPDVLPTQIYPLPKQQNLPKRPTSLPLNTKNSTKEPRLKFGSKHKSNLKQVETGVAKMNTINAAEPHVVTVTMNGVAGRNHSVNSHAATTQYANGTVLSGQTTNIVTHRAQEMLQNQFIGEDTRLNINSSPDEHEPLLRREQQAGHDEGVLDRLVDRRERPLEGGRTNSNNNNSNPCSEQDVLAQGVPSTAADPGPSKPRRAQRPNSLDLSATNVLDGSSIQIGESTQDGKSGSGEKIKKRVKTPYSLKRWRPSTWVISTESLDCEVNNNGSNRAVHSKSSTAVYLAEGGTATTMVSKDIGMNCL
Chain of Wee1-like protein kinase (Homo sapiens) (P30291 whole entry, looked up, the tested form may be a part): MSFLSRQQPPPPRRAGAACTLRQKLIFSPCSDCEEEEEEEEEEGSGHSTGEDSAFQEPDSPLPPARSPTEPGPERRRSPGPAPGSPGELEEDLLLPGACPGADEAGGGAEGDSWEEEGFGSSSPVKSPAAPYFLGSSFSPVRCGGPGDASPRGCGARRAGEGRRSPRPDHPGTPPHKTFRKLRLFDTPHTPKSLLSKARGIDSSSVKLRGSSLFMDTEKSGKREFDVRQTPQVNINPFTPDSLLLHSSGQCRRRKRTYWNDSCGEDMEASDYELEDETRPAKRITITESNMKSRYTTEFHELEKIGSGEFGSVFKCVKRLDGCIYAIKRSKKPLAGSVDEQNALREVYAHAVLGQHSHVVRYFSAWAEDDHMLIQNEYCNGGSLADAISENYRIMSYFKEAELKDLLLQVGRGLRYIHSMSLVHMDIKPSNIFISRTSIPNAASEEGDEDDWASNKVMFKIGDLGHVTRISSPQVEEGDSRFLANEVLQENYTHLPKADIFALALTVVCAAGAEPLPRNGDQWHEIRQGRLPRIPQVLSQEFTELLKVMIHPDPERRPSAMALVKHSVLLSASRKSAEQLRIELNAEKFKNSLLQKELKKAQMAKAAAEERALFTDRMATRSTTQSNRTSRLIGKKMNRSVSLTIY
Chain of Ephrin type-A receptor 6 (Homo sapiens) (Q9UF33 whole entry, the tested form may be a part): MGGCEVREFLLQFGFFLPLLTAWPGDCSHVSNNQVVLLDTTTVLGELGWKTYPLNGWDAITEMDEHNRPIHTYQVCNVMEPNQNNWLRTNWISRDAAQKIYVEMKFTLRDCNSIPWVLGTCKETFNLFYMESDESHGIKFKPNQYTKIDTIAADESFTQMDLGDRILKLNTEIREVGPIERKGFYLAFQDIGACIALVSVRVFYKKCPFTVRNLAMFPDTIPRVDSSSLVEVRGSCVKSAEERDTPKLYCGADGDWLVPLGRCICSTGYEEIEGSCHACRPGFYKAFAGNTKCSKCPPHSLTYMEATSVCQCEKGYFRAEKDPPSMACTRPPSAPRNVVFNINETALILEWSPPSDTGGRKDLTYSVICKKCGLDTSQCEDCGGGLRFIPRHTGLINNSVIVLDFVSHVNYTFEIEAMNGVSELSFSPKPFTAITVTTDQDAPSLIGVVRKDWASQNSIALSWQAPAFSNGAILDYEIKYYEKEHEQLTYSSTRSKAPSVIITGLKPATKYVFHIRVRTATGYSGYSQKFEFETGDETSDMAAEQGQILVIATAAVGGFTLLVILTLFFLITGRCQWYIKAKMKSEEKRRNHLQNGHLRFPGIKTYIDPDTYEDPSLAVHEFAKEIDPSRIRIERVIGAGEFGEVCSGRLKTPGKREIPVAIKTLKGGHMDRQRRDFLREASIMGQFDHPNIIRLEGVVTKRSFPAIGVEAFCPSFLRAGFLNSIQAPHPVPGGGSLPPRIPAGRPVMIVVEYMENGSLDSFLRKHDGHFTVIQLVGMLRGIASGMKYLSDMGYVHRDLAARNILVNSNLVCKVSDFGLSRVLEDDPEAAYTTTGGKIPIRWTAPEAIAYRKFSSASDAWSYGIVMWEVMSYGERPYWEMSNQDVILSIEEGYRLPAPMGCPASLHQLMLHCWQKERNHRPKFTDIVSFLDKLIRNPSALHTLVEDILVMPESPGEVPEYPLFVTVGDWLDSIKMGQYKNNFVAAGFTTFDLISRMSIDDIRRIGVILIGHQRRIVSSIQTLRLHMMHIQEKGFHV
Chain of Tyrosine-protein kinase Lck (Homo sapiens) (P06239 2-509 limits assumed): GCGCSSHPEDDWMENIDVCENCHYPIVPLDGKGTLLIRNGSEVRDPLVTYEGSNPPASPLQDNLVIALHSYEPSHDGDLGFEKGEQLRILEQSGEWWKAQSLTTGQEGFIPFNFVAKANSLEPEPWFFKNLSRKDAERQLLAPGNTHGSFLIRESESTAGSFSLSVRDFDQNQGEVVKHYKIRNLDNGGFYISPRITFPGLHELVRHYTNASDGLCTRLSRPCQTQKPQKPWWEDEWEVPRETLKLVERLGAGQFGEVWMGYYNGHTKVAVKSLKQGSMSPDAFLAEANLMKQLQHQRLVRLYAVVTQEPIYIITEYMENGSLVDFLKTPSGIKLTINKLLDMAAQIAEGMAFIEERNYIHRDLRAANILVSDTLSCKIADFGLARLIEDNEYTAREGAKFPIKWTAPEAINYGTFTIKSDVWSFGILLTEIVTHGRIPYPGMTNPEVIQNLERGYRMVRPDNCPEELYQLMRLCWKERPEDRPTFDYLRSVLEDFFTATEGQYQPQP

SMILES: CCOc1nc(Nc2ccc(C(=O)N3CCOCC3)cc2OC)nc2[nH]ccc12
- Papp [1]: 48 ×10⁻⁶ cm/s
- Activity [2]: 98%
- Activity [3]: 83.9%
- Activity [4]: 86.5%
- Activity (Homo sapiens): 103%
- Activity [5]: 84.6%
- Activity [6]: 121%
- Activity [7]: 72.2%
- Activity [8]: 81.6%
- Activity [9]: 104%
- Activity [10]: 100%
- Activity [11]: 87.7%
- Activity [12]: 98.3%
- Activity [13]: 104%
- Activity [14]: 80.4%
- Activity [15]: 100%
- Activity [16]: 87.5%
- Activity [17]: 108%
- Activity [18]: 88%
- Activity [19]: 99%
- Activity [20]: 92.8%
- Activity [21]: 95.6%
- Activity [22]: 85.8%
- Activity [23]: 99.9%
- Activity [24]: 105%
- Activity [25]: 101%
- Activity [26]: 45.4%
- Activity [27]: 99%
